Reference: patent US8999970B2, “Administration of an anti-obesity compound to individuals with renal impairment” (Arena Pharmaceuticals, Inc., priority 2010, dated 2015)

Legend:
[1] = APD356-009 study: M1 Cmax at Week 12 following lorcaserin 10 mg BID
[2] = Creatinine and creatinine clearance during 52 weeks in pooled phase 3 studies; type: in vivo, human
Experimental: Few patients in the APD356-009 trial developed creatinine values above or creatinine clearance values below normal (Table 12). At study entry, no patient had creatinine clearance less than 30 mL/min, and only 4 (1 randomized to lorcaserin, 3 to placebo) had values below 40 mL/min based on ideal body weight. […] Given the small number of patients with moderate or greater renal impairment in the phase 3 studies, a meaningful evaluation of the relationship between adverse events and renal impairment is not possible.

[3] = Toxicity studies in monkeys (single dose, 28-day, 13-week, 12-month); type: in vivo, cynomolgus monkeys; conditions: for Exposure multiple relative to human exposure at 10 mg BID: monkeys 100 mg/kg/day
Experimental: In cynomolgus monkeys, dose-limiting emesis occurred at 300 mg/kg single dose. In repeat
In a 28-day repeat dose study, one male given 100 mg/kg/day experienced a seizure. […] Reduced weight gain and food consumption occurred in 28-day, 13-week and 12-month studies at doses ≧10 mg/kg/day. Cholesterol, LDL and HDL decreased at ≧10 mg/kg/day in the 12-month study. […] The NOAEL was considered to be 2 mg/kg/day.
This animal continued treatment on Day 2 and no further seizures were observed throughout the duration of the study. […] A reduction in serum lipids (cholesterol, HDL, and LDL) was measured in both sexes treated with ≧10 mg/kg doses of lorcaserin. Reductions in total cholesterol and LDL occurred in some animals treated with 2 mg/kg as well. There was a dose-independent reduction in the mean triglyceride concentration in both sexes at ≧2 mg/kg. Mild increases in ALT occurred primarily in females at all dose levels and in one control animal. White blood cells in the urine of some females dosed at ≧50 mg/kg/day were thought to be associated with renal tubular changes noted histologically in three out of five cases.
There were no lorcaserin-related gross findings. Histologic changes were identified in the kidneys, ovaries, and possibly in the liver. Changes in the kidney consisted of focal or multifocal tubular epithelial cell degeneration, regeneration, and cellular casts. […] The histologic renal changes attributed to lorcaserin were not associated with changes in serum chemistry or kidney function. A review of the renal findings was conducted by two expert human renal pathologists, each of whom independently read blinded slides and reached the same conclusion: the administration of lorcaserin to monkeys for 12 months was not associated with drug-related renal pathology. […] One of these pathologists attributed the potential finding of regeneration to a staining artifact resulting in a bluish cytoplasmic discoloration. […] This change was reversible after a one month drug-free interval. […] The lipidosis was not present in animals sacrificed after a one month drug-free interval. No changes were identified by the study pathologist or the peer review pathologist in the heart, heart valves, pulmonary vessels or lungs of animals given lorcaserin compared to controls.
Changes in the kidney consisted of focal tubular epithelial cell degeneration, regeneration, and cellular casts. […] These findings were not observed in previous monkey studies, and no similar kidney findings occurred in rodents. Renal findings were determined to be unrelated to lorcaserin treatment by two independent human renal pathologists after reviewing blinded slide sets. In their independent opinions, the findings were not dose related and were consistent with age and focal inflammation or infection. One pathologist attributed the findings of regeneration to a staining artifact, resulting in a bluish cytoplasmic discoloration. If tubular renal epithelial regeneration were artifactual, renal findings of the conducting laboratory would be limited to the high dose. At 2, 10, 50, and 125 mg/kg, the margins were 1.0 and 0.6, 8 and 5, 44 and 31, and 51 and 51 times human exposure at the MRD for males and females, respectively. Renal findings in rodents and monkeys were of uncertain relationship to lorcaserin. Substantial margins over human exposure exist for all renal finding in rodents, and in monkeys according to two expert human renal pathologists. Even assuming the renal findings in monkeys are drug related, the principal findings were focal or multifocal, minimal to mild (1 instance of moderate regeneration at the high dose) renal tubular epithelial regeneration and degeneration that would have had to have been much more severe and diffuse to be of clinical relevance. Based upon adverse events, clinical chemistry and urinalyses in an extensive phase 2 and phase 3 program, there is no evidence of a lorcaserin effect on the kidney in humans.

For C[C@H]1CN(S(=O)(=O)O)CCc2ccc(Cl)cc21 [Compound M1, lorcaserin sulfamate], the “Mean Cmax observed in patients” value [1] was 196 ng/mL.

For C[C@H]1CNCCc2ccc(Cl)cc21 [Lorcaserin, (R)-8-chloro-1-methyl-2,3,4,5-tetrahydro-1H-3-benzazepine], the “Creatinine Clearance at Last Observation (Ideal Body Weight), Mean (SEM) Change from Baseline” value ([2]; Any Lorcaserin Dose, N 3746) was 0.25 (0.165), the “Creatinine Clearance at Last Observation (Ideal Body Weight), Mean (SEM) Change from Baseline” value ([2]; Lorcaserin 10 mg BID Pooled, N 2992) was 0.47 (0.181) and the NOAEL at 12 months ([3]; both sexes, cynomolgus monkey, in vivo, oral, monkeys, 12-month study) was 2 mg/kg/day. For the same compound, the MTD ([3]; cynomolgus monkey, in vivo, oral, monkeys, repeat dose studies, read-out: Maximum tolerated dose) was 100 to 125 mg/kg/day, the “Single dose with dose-limiting emesis” value ([3]; cynomolgus monkeys) was 300 mg/kg and the “Margin, times human exposure at the MRD” value ([3]; monkeys 2 mg/kg, females) was 0.6 times. The “Margin, times human exposure at the MRD” value ([3]; monkeys 2 mg/kg, males) was 1.0 times, the “Margin, times human exposure at the MRD” value ([3]; monkeys 10 mg/kg, females) was 5 times and the “Margin, times human exposure at the MRD” value ([3]; monkeys 10 mg/kg, males) was 8 times. The “Margin, times human exposure at the MRD” value ([3]; monkeys 50 mg/kg, females) was 31 times, the “Margin, times human exposure at the MRD” value ([3]; monkeys 50 mg/kg, males) was 44 times and the “Exposure multiple relative to human exposure at 10 mg BID” value ([3]; females) was 68. The “Exposure multiple relative to human exposure at 10 mg BID” value ([3]; males) was 74, the “Margin, times human exposure at the MRD” value ([3]; monkeys 125 mg/kg, females) was 51 times and the “Margin, times human exposure at the MRD” value ([3]; monkeys 125 mg/kg, males) was 51 times. For the same compound, the “Animals with focal renal tubular epithelial cell degeneration and/or regeneration (minimal to mild regeneration in renal cortex)” value ([3]; monkeys 12 months, 2 mg/kg) was 1/8, the “Females with cystic ovarian follicles” value ([3]; monkeys 12 months, 2 mg/kg) was 0/4 and the “Animals with hepatic lipidosis” value ([3]; monkeys 12 months, 2 mg/kg/day) was 4/8. For the same compound, the “Animals with focal renal tubular epithelial cell degeneration and/or regeneration (minimal to mild regeneration in renal cortex)” value ([3]; monkeys 12 months, 10 mg/kg) was 2/8, the “Females with cystic ovarian follicles” value ([3]; monkeys 12 months, 10 mg/kg) was 1/4 and the “Animals with hepatic lipidosis” value ([3]; monkeys 12 months, 10 mg/kg/day) was 2/8. For the same compound, the “Animals with focal renal tubular epithelial cell degeneration and/or regeneration (minimal to mild regeneration in renal cortex)” value ([3]; monkeys 12 months, 50 mg/kg) was 3/8, the “Females with cystic ovarian follicles” value ([3]; monkeys 12 months, 50 mg/kg) was 1/4 and the “Males with cellular casts” value ([3]; monkeys 12 months, 50 mg/kg) was 1/4. For the same compound, the “Animals with hepatic lipidosis” value ([3]; monkeys 12 months, 50 mg/kg/day) was 3/8, the “Animals with cellular casts” value ([3]; monkeys 12 months, 125 mg/kg) was 4/4 and the “Animals with focal renal tubular epithelial cell degeneration and/or regeneration (minimal to mild regeneration in renal cortex)” value ([3]; monkeys 12 months, 125 mg/kg) was 6/8. The “Females with cellular casts” value ([3]; monkeys 12 months, 125 mg/kg) was 2/4, the “Females with cystic ovarian follicles” value ([3]; monkeys 12 months, 125 mg/kg) was 3/4 and the “Males with cellular casts” value ([3]; monkeys 12 months, 125 mg/kg) was 1/4. The “Animals with regeneration (incl. moderate)” value ([3]; monkeys 12 months, 125 mg/kg group) was 7/8, the “Animals with hepatic lipidosis” value ([3]; monkeys 12 months, 250 mg/kg/day) was 4/8 and the “Doses with dose-dependent decrease in activity and hunched appearance” value ([3]; monkeys 12 months, both sexes) was no less than 10 mg/kg. The “Females with moderate epithelial regeneration” value ([3]; monkeys 12 months, high dose) was 1/4, the “Animals with minimal to mild tubular epithelial degeneration” value ([3]; monkeys 12 months, high dose group (125 mg/kg)) was 6 of 8 and the “Doses at which cholesterol, LDL and HDL decreased” value ([3]; monkeys, 12-month study) was no less than 10 mg/kg/day. For the same compound, the Lorcaserin-related deaths ([3]; monkeys, 12-month study) was “no lorcaserin-related deaths” and the “Doses with reduced weight gain and food consumption” value ([3]; monkeys, 28-day, 13-week and 12-month studies) was no less than 10 mg/kg/day.
